Here are results for seven molecules from ChEMBL document CHEMBL1130859, “Inhibitors of the bacterial cell wall biosynthesis enzyme MurD” (Bioorg Med Chem Lett, 1998).

Assay [1] can be described thus: Compound was tested for inhibition against UDP-N-acetylmuramoyl-L-alanyl-D-glutamate synthetase. The arrangement: species or system Escherichia coli.
A short description of assay [2]: Compound was tested for inhibition against UDP-N-acetylmuramoyl-L-alanyl-D-glutamate synthetase isolated from Escherichia coli.

Take `CC(NC(=O)CCCCCOP(=O)(O)OP(=O)(O)OC[C@H]1O[C@@H](n2ccc(=O)[nH]c2=O)[C@H](O)[C@@H]1O)P(=O)(O)CC(CCC(=O)O)C(=O)O` (some centres not stated): in assay [1], the IC50 (usually the concentration that gives 50% inhibition) was found to be 680 nM.

In assay [2], `CC(=O)NC1C(OP(=O)(O)OP(=O)(O)OC[C@H]2OC(n3cc(I)c(=O)[nH]c3=O)[C@H](O)[C@@H]2O)OC(CO)C(O)C1O[C@H](C)C(=O)N[C@@H](C)P(=O)(O)CC(CCC(=O)O)C(=O)O` (some centres not stated) [17] had an IC50 of 4 nM.

In assay [1], `CC(=O)NC1C(OP(=O)(O)O)OC2COC(c3ccccc3)OC2C1O[C@H](C)C(=O)N[C@@H](C)P(=O)(O)CC(CCC(=O)O)C(=O)O` (some centres not stated) showed an IC50 of 455 nM. This counts as sub-micromolar.

For `CC(=O)NC1C(O)OC(CO)C(O)C1O[C@H](C)C(=O)N[C@@H](C)P(=O)(O)CC(CCC(=O)O)C(=O)O` (some centres not stated), the half-maximal inhibitory concentration (IC50) in assay [1] amounted to 782000 nM.

Molecule `CC(=O)NC1C(OP(=O)(O)O)OC(CO)C(O)C1O[C@H](C)C(=O)N[C@@H](C)P(=O)(O)CC(CCC(=O)O)C(=O)O` (some centres not stated) came in with an IC50 in assay [1] of 20 nM.

Take `CC(=O)NC1C(OP(=O)(O)OP(=O)(O)OC[C@H]2OC(n3ccc(=O)[nH]c3=O)[C@H](O)[C@@H]2O)OC(CO)C(O)C1O[C@H](C)C(=O)N[C@@H](C)P(=O)(O)CC(CCC(=O)O)C(=O)O` (some centres not stated): in assay [1], the IC50 was < 1 nM.

In the case of `CC(NC(=O)CCCCCOP(=O)(O)O)P(=O)(O)CC(CCC(=O)O)C(=O)O` (configuration not stated), the IC50 in assay [1] was 29000 nM.
